# Literature values as cited in PMC10654029 (The Journal of Biological Chemistry, 2023).
# Assays:
# [1] = tested on: Ba/F3 cells expressing METex14 F1200I; conditions: Ba/F3 cells expressing METex14 F1200I vs WT
# [2] = tested on: Ba/F3 cells expressing METex14 L1195V; conditions: Ba/F3 cells expressing METex14 L1195V vs WT
structure (smiles),measurement,setting,value
CN1CCC(COc2cnc(-c3cccc(Cn4nc(-c5cccc(C#N)c5)ccc4=O)c3)nc2)CC1 [tepotinib],decrease of cellular potency compared with the WT,[1],~15 fold
same,decrease of cellular potency compared with the WT,[2],~15 fold
